# Source: patent US12392768B2, “Methods for determining blood gas or metabolic parameters” (RADIOMETER MEDICAL APS, priority 2019, dated 2025)
# Entries after “also recorded” stand apart in the source; their conditions may differ. Structures can show the parent of a compound that is named as a salt.
# Assays:
# platelets [1] = experiment: Manual count of single platelets and platelet aggregates in heparinized blood with anti-platelet drug candidates (Example 1); conditions: heparinized venous blood; for platelet count compared to LiHep and PicoSAM controls: L-Arginine 600 μM and 6 mM, dipyridamole 10 and 100 μM; for count of single platelets compared to EDTA reference / number of platelet aggregates compared to EDTA control: two concentration levels per drug
# Protocol: Each experiment was conducted on a separate day with blood from one voluntary donor testing one anti-platelet drug candidate. For each experiment PICO70 syringe samplers (Radiometer Medical ApS) were prepared just before sample drawing. For “LiHep” (Liquid Heparin) conditions, PICO70 samplers were emptied of the gold ball and heparin brick and 15 μl of aqueous liquid balanced heparin comprising heparin lithium (Celsus Laboratories) and heparin sodium (Celsus Laboratories) (final heparin conc. 60 IU/mL blood) and 15 μl of the solvent of the tested drug were added. For “PicoSAM” conditions, unmodified PICO70 samplers (with gold ball and heparin brick) were used and 15 μl of the solvent of the respective tested drug was added. For “LiHep xxx drug” conditions, PICO70 samplers were emptied as described for LiHep and 15 μl of liquid balanced heparin (final heparin conc. 60 IU/mL blood) and 15 μl of the dissolved tested drug were added. For “PicoSAM xxx drug” conditions, unmodified PICO70 samplers (with gold ball and heparin brick) were used and 15 μl of the dissolved tested drug was added. […] 600 μM and 6 mM) and dipyridamole (Sigma, D9766; dissolved in 1:10 or 1:100 DMSO in saline, final conc. 10 and 100 μM). An EDTA tube (BD Vacutainer with spray-coated K2EDTA, 10 ml) and duplicate samples of all conditions of PICO70 syringe samplers were filled by drawing venous blood via a butterfly needle using a sealed VTC (vented tip cap) to fill the otherwise self-aspirating PICO70 samplers with 1.5 mL venous whole blood. Samplers were inverted 8 times immediately after drawing to insure proper anti-coagulation of the samples. The blood samples were mixed gently by hand (samplers without gold ball) or on a SAM mixer (Radiometer Medical ApS) for 15 minutes after drawing the sample. Mixed samples were fixed immediately with 10% formalin solution (1:1 dilution of blood in formalin) for at least 10 minutes and further diluted 1:10 in platelet dilution solution to hemolyze red blood cells (RBCs) to assessed manual platelet count using a hemocytometer. […] Single platelet counts were adjusted for dilution with liquid heparin and or dissolved drug solution to calculate single platelet concentrations.
# platelets and WBCs = experiment: Wet mount images of stained and hemolyzed blood samples (Example 3); assay type: cell-based; conditions: for WBC aggregates / platelet satellinism (platelets binding to WBCs) / platelets (single or aggregated) in stained wet mounts: PicoSAM samples, tirofiban 1 μM, eptifibatide 20 μM, iloprost 100 nM, EDTA anti-coagulated blood
# Protocol: Venous blood samples were drawn and mixed as described before in Example 1 and used to prepare stained wet mounts images. Blood samples were mixed with a staining and hemolyzing agent (methylene blue and deoxycholic acid, respectively) and incubated at 47° C. in a water bath for 30 seconds. Stained and hemolyzed blood samples were then prepared in wet mount samples on a glass slide and covered with a glass coverslip. Images of stained samples were then acquired with a Leica 750 microscope using a 40× air objective in bright field mode. An image processing software (FIJI, ImageJ) was used to select regions of interest (ROIs) of representative stained WBCs from the images.
# platelets [2] = experiment: Manual platelet count versus EDTA reference (Example 4); assay type: cell-based; conditions: for Mean Manual PLT count: Iloprost 1 μM in PicoSAM, EDTA reference
# Protocol: For each experiment PICO70 syringe samplers (Radiometer Medical ApS) were prepared just before sample drawing. For “LiHep” (Liquid Heparin) conditions, PICO70 samplers were emptied of the gold ball and heparin brick and 15 μl of aqueous liquid balanced heparin comprising heparin lithium (Celsus Laboratories) and heparin sodium (Celsus Laboratories) (final heparin conc. 60 IU/mL blood) and 15 μl of the solvent of the tested drug were added. For “PicoSAM” conditions, unmodified PICO70 samplers (with gold ball and heparin brick) were used and 15 μl of the solvent of the respective tested drug was added. For “LiHep xxx drug” conditions, PICO70 samplers were emptied as described for LiHep and 15 μl of liquid balanced heparin (final heparin conc. 60 IU/mL blood) and 15 μl of the dissolved tested drug were added. For “PicoSAM xxx drug” conditions, unmodified PICO70 samplers (with gold ball and heparin brick) were used and 15 μl of the dissolved tested drug was added. […] An EDTA tube (BD Vacutainer with spray-coated K2EDTA, 10 ml) and duplicate samples of all conditions of PICO70 syringe samplers were filled by drawing venous blood via a butterfly needle using a sealed VTC (vented tip cap) to fill the otherwise self-aspirating PICO70 samplers with 1.5 mL venous whole blood. Samplers were inverted 8 times immediately after drawing to insure proper anti-coagulation of the samples. The blood samples were mixed gently by hand (samplers without gold ball) or on a SAM mixer (Radiometer Medical ApS) for 15 minutes after drawing the sample. Mixed samples were fixed immediately with 10% formalin solution (1:1 dilution of blood in formalin) for at least 10 minutes and further diluted 1:10 in platelet dilution solution to hemolyze red blood cells (RBCs) to assessed manual platelet count using a hemocytometer. […] Single platelet counts were adjusted for dilution with liquid heparin and or dissolved drug solution to calculate single platelet concentrations.
# platelets [3] = experiment: ABX platelet count, automated hematology analyzer (Example 4); assay type: cell-based; conditions: for Mean ABX PLT count: Iloprost 1 μM in PicoSAM, EDTA reference
# Protocol: Blood samples drawn and mixed after 15 minutes as described above were assessed with an automated hematology analyzer (Horiba, ABX Pentra 60C+) (ABX) for complete blood count (CBC) with 5-diff including WBC concentration, platelet concentration, mean platelet volume (MPV), concentrations and fractions of neutrophils, lymphocytes, monocytes, eosinophils and basophils, RBC concentration, hematocrit, hemoglobin concentration, RBC descriptive parameters (MCV, MCH, MCHC, RDW). Samples were prepared from several donors. Measured platelet concentration was used to compare to manually assessed platelet concentrations of iloprost heparin samples (in PICO70 samplers) and EDTA anti-coagulated samples. For control, EDTA samples with no platelet aggregates are used as reference measurement for the measured automated ABX platelet concentration.
# platelets [4] = experiment: Microscopic wet mount images of fixed blood samples, platelet aggregation (Example 2); assay type: cell-based; conditions: 40x phase contrast, eptifibatide 20 μM added to heparin
# Description: Venous blood samples drawn, mixed and fixed with 10% formalin solution, as described before in Example 1 were used to prepare wet mounts on a glass slide and covered with a glass coverslip. Wet mount samples of fixed blood cells were then imaged with a Leica 750 microscope using a 40× phase-contrast air objective.
compound,measurement,setting,value
"OCCN(CCO)c1nc(N2CCCCC2)c2nc(N(CCO)CCO)nc(N3CCCCC3)c2n1 [Dipyridamole, dipyridamole]",platelet count compared to LiHep and PicoSAM controls,platelets [1],slightly higher
N=C(N)NCCC[C@H](N)C(=O)O [L-Arginine],count of single platelets compared to EDTA reference,platelets [1],decreased
same,number of platelet aggregates compared to EDTA control,platelets [1],higher
same,platelet count compared to LiHep and PicoSAM controls,platelets [1],slightly higher
"Clc1ccccc1CN1CCc2sccc2C1 [Ticlopidine, ticlopidine hydrochloride]",count of single platelets compared to EDTA reference,platelets [1],similar
"CCCCS(=O)(=O)N[C@@H](Cc1ccc(OCCCCC2CCNCC2)cc1)C(=O)O [Tirofiban, tirofiban hydrochloride monohydrate]",WBC aggregates,platelets and WBCs,WBC aggregates were also observed
same,platelet satellinism (platelets binding to WBCs),platelets and WBCs,platelet satellinism
same,platelets (single or aggregated) in stained wet mounts,platelets and WBCs,single platelets
same,count of single platelets compared to EDTA reference,platelets [1],comparable
same,number of platelet aggregates compared to EDTA control,platelets [1],no or few
"CC#CCC(C)[C@H](O)/C=C/[C@@H]1[C@H]2C/C(=C/CCCC(=O)O)C[C@H]2C[C@H]1O (stereo partly drawn) [Iloprost, iloprost]",WBC aggregation in the blood sample,platelets and WBCs,very low WBC aggregation
same,WBC aggregates,platelets and WBCs,not platelet satellinism or WBC aggregates
same,platelet satellinism (platelets binding to WBCs),platelets and WBCs,not platelet satellinism
same,platelets (single or aggregated) in stained wet mounts,platelets and WBCs,single platelets
same,Mean Manual PLT count,platelets [2]; Donor ID 4,198 PLT/nl
same,Mean Manual PLT count,platelets [2]; Donor ID 5,242 PLT/nl
same,Mean Manual PLT count,platelets [2]; Donor ID 6,154 PLT/nl
same,Mean Manual PLT count,platelets [2]; Donor ID 7,247 PLT/nl
same,Mean Manual PLT count,platelets [2]; Donor ID 8,203 PLT/nl
same,Mean Manual PLT count,platelets [2]; Donor ID 9,202 PLT/nl
same,"average performance of platelet count compared to EDTA samples as reference, manual count","platelets [2]; PicoSAM 100 nM iloprost, one donor",97%
same,"average performance of platelet count compared to EDTA samples as reference, manual count","platelets [2]; PicoSAM 1 μM iloprost, eight donors",93%
same,Mean ABX PLT count,platelets [3]; Donor ID 4,204 PLT/nl
same,Mean ABX PLT count,platelets [3]; Donor ID 5,253 PLT/nl
same,Mean ABX PLT count,platelets [3]; Donor ID 6,173 PLT/nl
same,Mean ABX PLT count,platelets [3]; Donor ID 7,233 PLT/nl
same,Mean ABX PLT count,platelets [3]; Donor ID 8,191 PLT/nl
same,Mean ABX PLT count,platelets [3]; Donor ID 9,216 PLT/nl
same,"average performance of platelet count compared to EDTA samples as reference, ABX platelet count","platelets [3]; PicoSAM 1 μM iloprost, seven donors",97%
same,count of single platelets compared to EDTA reference,platelets [1],comparable
same,number of platelet aggregates compared to EDTA control,platelets [1],no or few
"O=C(O)CN(CCN(CC(=O)O)CC(=O)O)CC(=O)O [EDTA, Ethylenediaminetetraacetic acid]",platelet aggregates in microscopic images of blood samples,platelets [4],prevents platelet activation and maintains single platelets; also recorded: cannot be seen
same,WBC aggregates,platelets and WBCs,same results
same,platelet satellinism (platelets binding to WBCs),platelets and WBCs,same results
same,platelets (single or aggregated) in stained wet mounts,platelets and WBCs,same results
same,Mean Manual PLT count,platelets [2]; Donor ID 4,200 PLT/nl
same,Mean Manual PLT count,platelets [2]; Donor ID 5,242 PLT/nl
same,Mean Manual PLT count,platelets [2]; Donor ID 6,189 PLT/nl
same,Mean Manual PLT count,platelets [2]; Donor ID 7,249 PLT/nl
same,Mean Manual PLT count,platelets [2]; Donor ID 8,207 PLT/nl
same,Mean Manual PLT count,platelets [2]; Donor ID 9,255 PLT/nl
same,Mean ABX PLT count,platelets [3]; Donor ID 4,200 PLT/nl
same,Mean ABX PLT count,platelets [3]; Donor ID 5,259 PLT/nl
same,Mean ABX PLT count,platelets [3]; Donor ID 6,185 PLT/nl
same,Mean ABX PLT count,platelets [3]; Donor ID 7,240 PLT/nl
same,Mean ABX PLT count,platelets [3]; Donor ID 8,202 PLT/nl
same,Mean ABX PLT count,platelets [3]; Donor ID 9,236 PLT/nl
eptifibatide acetate,platelet aggregates in microscopic images of blood samples,platelets [4],cannot be observed; also recorded: cannot be seen
same,WBC aggregates,platelets and WBCs,WBC aggregates were also observed
same,platelet satellinism (platelets binding to WBCs),platelets and WBCs,platelet satellinism
same,platelets (single or aggregated) in stained wet mounts,platelets and WBCs,single platelets
same,count of single platelets compared to EDTA reference,platelets [1],comparable
same,number of platelet aggregates compared to EDTA control,platelets [1],no or few
Heparin,platelet aggregates in microscopic images of blood samples,platelets [4],allows or even potentiates platelet aggregation; also recorded: showed platelet aggregates
